Measurements taken from patent US4264572A, “X-ray contrast media” (Schering Aktiengesellschaft, priority 1978, dated 1981).

Legend:
rat [1] = experiment: neural tolerance, ED50 pericerebral in rat (24 hours); details: meglumine salts
rat [2] = experiment: general tolerance, LD50 i.v. in rat (7 days); type: in vivo; details: meglumine salts
[3] = coefficient of distribution in 1-butanol/tris-HCl buffer; type: physicochemical; details: pH 7.6, 1-butanol/tris-HCl buffer; meglumine salts
Excerpt: It is furthermore seen from this table that the interaction of the new compounds with proteins is much less than that of the known comparison substances.

CNC(=O)c1c(I)c(C(=O)NCC(=O)Nc2c(I)c(C(=O)O)c(I)c(C(=O)NCCO)c2I)c(I)c(N(C)C(=O)COC)c1I [A, 5-(3-N-methylmethoxyacetamido-5-methylcarbamoyl-2,4,6-triiodine-benzamidoacetamido)-N-(2-hydroxyethyl)-2,4,6-triiodine-isophthalamic acid]
Tolerance ED50 pericerebral (24 hours) (rat [1]): ~ 100 mg I/kg of rat | Tolerance LD50 i.v. (7 days) (rat [2]): ~ 10,000 mg I/kg of rat | Protein Bond (proteins): 2.5 | Coefficient of Distribution [3]: < 0.001

CNC(=O)c1c(I)c(C(=O)NCC(=O)Nc2c(I)c(C(=O)O)c(I)c(C(=O)NCCO)c2I)c(I)c(N(C)C(C)=O)c1I [B, 5-(3-N-methyl-acetamido-2,4,6-triiodine-5-methylcarbamoyl-benzamido-acetamido)-N-(2-hydroxyethyl)-2,4,6-triiodine-isophthalamic acid]
Tolerance ED50 pericerebral (24 hours) (rat [1]): ~ 40 mg I/kg of rat | Tolerance LD50 i.v. (7 days) (rat [2]): ~ 7,500 mg I/kg of rat | Protein Bond (proteins): 6.8 | Coefficient of Distribution [3]: 0.033

CNC(=O)c1c(I)c(NC(C)=O)c(I)c(C(=O)O)c1I [C, 5-acetamido-2,4,6-triiodine-N-methyl-isophthalamic acid]
Tolerance ED50 pericerebral (24 hours) (rat [1]): 60 mg I/kg of rat | Tolerance LD50 i.v. (7 days) (rat [2]): ~ 7,500 mg I/kg of rat | Protein Bond (proteins): 7.6 | Coefficient of Distribution [3]: 0.017
